Source: patent publication US12582132B2, “Germination/sprouting and fruit ripening regulators” (The United States of America, as represented by the …, priority 2021, dated 2026)
“Also recorded” adds a separate entry of the source.

How the values were obtained:
Assay type in all cases: in vivo
[1] = system: Cherry tomato fruits at mature green stage; assay: Treatment of cherry tomatoes by injection: fruit ripening; settings: for cherry tomato appearance (colour), FIG. 3B / FIG. 3D: 6 DAT, injected with 10 μM CAD or 200 μM ABA in 0.1% TRITON-X100; for cherry tomato ripening stage: six days after treatment, injected with 50 μM CAD or 200 μM ABA in 0.1% TRITON X-100
Protocol: Cherry tomato fruits at mature green stage were purchased from Butler's Orchard (Germantown, Maryland, USA). Each fruit was injected with either 50 μM CAD in 0.1% TRITON X-100 surfactant; 200 μM ABA in 0.1% TRITON X-100 surfactant; or buffer alone (0.1% TRITON X-100 surfactant). […] FIG. 3A and FIG. 3B show images of cherry tomatoes injected with 10 μM CAD. FIG. 3C and FIG. 3D show images of cherry tomatoes injected with 200 μM ABA. FIG. 3E and FIG. 3F show images of cherry tomatoes injected with buffer alone. FIG. 3G and FIG. 3H show images of untreated tomatoes. FIG. 3A; FIG. 3C; FIG. 3E; and FIG. 3G show images taken the day of treatment. FIG. 3B; FIG. 3D; […]; and FIG. 3H show images taken 6 DAT.

[2] = system: Strawberry fruit (Fragaria x ananassa CV. Albion); assay: Treatment of strawberry fruit by dipping: fruit ripening; settings: for strawberry fruit ripening compared to mock-treated strawberries: 10 μM CAD or 1 mM ABA in 0.1% TRITON X-100, dipped 20 seconds eight days after pollination; for strawberry appearance (colour), FIG. 2A: 7 DAT; for strawberry appearance (colour), FIG. 2A / strawberry appearance (colour), FIG. 2B / strawberry appearance (colour), FIG. 2C / strawberry appearance (colour), FIG. 2D / strawberry appearance (colour), FIG. 2E / strawberry appearance (colour), FIG. 2F: 8 day old fruit, 10 μM CAD or 1 mM ABA in 0.1% TRITON-X100; for strawberry appearance (colour), FIG. 2B: 8 DAT; for strawberry appearance (colour), FIG. 2C: 9 DAT; for strawberry appearance (colour), FIG. 2D: 10 DAT; for strawberry appearance (colour), FIG. 2E: 11 DAT; for strawberry appearance (colour), FIG. 2F: 12 DAT
Protocol: Strawberry plants (Fragaria x ananassa CV. Albion) were grown in a greenhouse at 28° C. and 14-hour light/10-hour dark conditions. […] Fruits were allowed to continue growing on the plants. FIG. 1 depicts images of strawberry fruit development under standard conditions.
FIG. 2A to FIG. 2F depict images of strawberries treated with either 10 μM CAD in 0.1% TRITON X-100 surfactant; 1 mM ABA in 0.1% TRITON X-100 surfactant; or buffer (0.1% TRITON X-100 surfactant) without chemical (mock-treated). […] The CAD dosage was lower than that of ABA (10 μM vs. 1 mM), and CAD stimulated fruit ripening faster than did ABA. […] In contrast, ABA-treated fruit started to turn red 9 DAT, and reached full red 11 DAT.

[3] = system: strawberries on the plant; assay: Effect of CAD injection on strawberry fruit ripening; settings: for strawberry appearance (colour), FIG. 4A: 8 DAT; for strawberry appearance (colour), FIG. 4A / strawberry appearance (colour), FIG. 4B / strawberry appearance (colour), FIG. 4C / strawberry appearance (colour), FIG. 4D / strawberry appearance (colour), FIG. 4E / strawberry appearance (colour), FIG. 4F: 7 day old fruit, 10 μM CAD or 200 μM ABA in 0.1% TRITON-X100, injected; for strawberry appearance (colour), FIG. 4B: 9 DAT; for strawberry appearance (colour), FIG. 4C: 10 DAT; for strawberry appearance (colour), FIG. 4D: 11 DAT; for strawberry appearance (colour), FIG. 4E: 12 DAT; for strawberry appearance (colour), FIG. 4F: 13 DAT
Protocol: While still on the plant, strawberries were injected with either 10 μM CAD in 0.1% TRITON-X 100 surfactant; 200 μM ABA in 0.1% TRITON-X 100 surfactant; or 0.1% TRITON-X 100 surfactant. The strawberries were allowed to remain on the plant, and removed and photographed at 8 DAT, 9 DAT, 10 DAT, 11 DAT, 12 DAT, and 13 DAT. FIG. 4A to FIG. 4F depict images of strawberries treated with either 10 μM CAD in 0.1% TRITON-X 100 surfactant; 200 μM ABA in 0.1% TRITON-X 100 surfactant; or 0.1% TRITON-X 100 surfactant alone (mock); or no treatment.

[4] = system: Strawberry seeds (Fragaria x ananassa CV. Albion); assay: Chemical library screening for delaying strawberry seed germination; settings: about 5 μM chemical in 0.1% TRITON X-100; strawberry seeds in 96 well plates, 25° C., vs non-treated or mock-treated seeds
Protocol: A chemical library containing 10,000 small compounds (˜300 Dalton) was purchased from ChemBridge Co (San Diego, California, USA). Strawberry seeds (Fragaria x ananassa CV. Albion) were purchased from Johnny's Seeds (Fairfield, Maine, USA). Five to six seeds were sterilized with 70% ethanol and added to each well of 96 well ELISA plates containing about 5 μM chemical 0.1% TRITON X-100 surfactant (polyethylene glycol tert-octylphenyl ether). One mM abscisic acid (ABA), a hormone that inhibits seed germination, and gibberellic acid (GA3), a hormone that promotes seed germination, were used as controls. Each experiment was conducted in triplicate. Plates were kept in a growth chamber at 25° C. under dark, and a 14 hour light/10 hour dark cycle was added after seed germination was observed.

[5] = system: strawberry fruit; assay: CAD analogs: ability to hasten strawberry fruit ripening; settings: 50 μM in 0.1% TRITON-X 100, applied at the same timing as CAD; compared with CAD
Protocol: Chemicals with similarity to CAD were tested for their ability to hasten fruit ripening.
To the inventors' knowledge, no chemical closely related to CAD is currently commercially available. A few analogs with 88-90% similarity to CAD were found in the ChemBridge database used in Example 1.
This compound has 90% similarity to CAD.

[6] = 10 μM CAD or 1 mM ABA in 0.1% TRITON X-100, dipped eight days after pollination, days after treatment

| Structure (SMILES) | cherry tomato appearance (colour), FIG. 3B / FIG. 3D [1] | cherry tomato ripening stage [1] | strawberry fruit ripening compared to mock-treated strawberries [2] | fruit reached full red [2, 6] | strawberry appearance (colour), FIG. 2A [2] | strawberry appearance (colour), FIG. 2B [2] | strawberry appearance (colour), FIG. 2C [2] | strawberry appearance (colour), FIG. 2D [2] | strawberry appearance (colour), FIG. 2E [2] | strawberry appearance (colour), FIG. 2F [2] | strawberry appearance (colour), FIG. 4A [3] | strawberry appearance (colour), FIG. 4B [3] | strawberry appearance (colour), FIG. 4C [3] | strawberry appearance (colour), FIG. 4D [3] | strawberry appearance (colour), FIG. 4E [3] | strawberry appearance (colour), FIG. 4F [3] | effect on strawberry fruit ripening [5] | further results |
| --- | --- | --- | --- | --- | --- | --- | --- | --- | --- | --- | --- | --- | --- | --- | --- | --- | --- | --- |
| CCc1cc(Br)ccc1NC(=O)c1ccn(CC)n1 [CAD, N-(4-bromo-2-ethylphenyl)-1-ethyl-1H-pyrazole-3-carboxamide] | dark red | fully ripen (red stage) | stimulated strawberry fruit ripening | 9 DAT | white have a pink tint | with pink spots | mostly red | red | red allover | red allover | with a pink tint | mostly light red; also recorded: showed some color | red and ripe | red | bright red | red allover |  | cherry tomato ripening compared to mock-treated or untreated cherry tomatoes ([1]; CAD injected in 0.1% TRITON X-100): hastening of cherry tomato ripening; also recorded: promoted fruit ripening of climacteric tomatoes; ripened before strawberries injected with 200 μM ABA ([3]; strawberries injected with 10 μM CAD in TRITON-X100 14 days after pollination): at least two; delaying seed germination [4]: can delay seed germination |
| CC1=CC(=O)CC(C)(C)[C@@]1(O)/C=C/C(C)=C\C(=O)O [ABA, abscisic acid, reference compound] | red | fully ripen (red stage) | stimulated strawberry fruit ripening | 11 DAT | white with a greenish tint | white | with more pink | reddish | mostly red | red allover | white or greenish white | with some pink | pink/red | reddish | red | red with some white at the top |  | fruit began/started to turn red (start of ripening) [2, 6]: 9 DAT |
| CCc1cccc(C)c1NC(=O)c1ccn(CC)n1 [1-ethyl-N-(2-ethyl-6-methylphenyl)-1H pyrazole-3-carboxamide] |  |  |  |  |  |  |  |  |  |  |  |  |  |  |  |  | no obvious effect on fruit ripening |  |
| CCn1ccc(C(=O)Nc2ccc(Br)cc2)n1 [N-(4-bromophenyl)-1-ethyl-1H-pyrazole-3-carboxamide] |  |  |  |  |  |  |  |  |  |  |  |  |  |  |  |  | has an effect on fruit ripening; also recorded: promoted strawberry fruit ripening, although not as effectively as CAD |  |
| CCn1cc(Br)c(C(=O)Nc2ccccc2C(C)(C)C)n1 [4-bromo-N-(2-tert-butylphenyl)-1-ethyl-1H-pyrazole-3-carboxamide] |  |  |  |  |  |  |  |  |  |  |  |  |  |  |  |  | a lower effect on fruit ripening than CAD |  |
